Source: patent publication US12441691B2 (Cytokinetics, Inc., priority 2020, dated 2025)

Assays:
[1] = system: ankle plantarflexor muscle; test: Rat isometric ankle plantarflexor muscle force; assay type: in vivo, Sprague Dawley rats; conditions: continuous intravenous infusion over sixty minutes, 30 Hz nerve stimulation, estimated EC50 = concentration at which muscle force is 50% of pre-dose maximum tension
Excerpt: Female Sprague Dawley rats were placed under a stable anesthetic plane with inhaled isoflurane (1-5%). One incision was made on the mid-thigh region of the right leg to expose the sciatic nerve. To prevent co-contraction of the ankle dorsiflexors, an additional incision was made lateral to the patella to isolate and sever the peroneal nerve. Rats were then placed on a temperature-maintained in situ muscle analysis rig (Aurora Scientific, Model 806C). The knee was immobilized in a clamp between two sharpened screws and the foot was taped to a footplate attached to a force transducer (Aurora Scientific, Ontario, Canada). Stainless steel needle electrodes (0.10 mm) were hooked around the exposed sciatic nerve. Isometric ankle plantarflexor muscle contractile force was assessed with the ankle joint at 90° flexion. A 30 Hz electrical stimulation (under supramaximal voltage conditions) was applied to the nerve and the resulting muscle force was recorded via a servomotor. A pre-dose 30 Hz force response was established as the baseline force. A pre-dose 150 Hz force response was established as the maximum isometric force. Compounds were formulated in 50% polyethylene glycol (PEG): 16% Cavitron: 10% dimethylacetamide (DMA) and administered by continuous intravenous infusion over a sixty minute period. The muscle force response to compound was measured every two minutes over the dosing period. Data were reported as an estimated EC50 value, which is the concentration at which muscle force is 50% of the pre-dose maximum tension. In Table 10, “Example Compound” refers to the compound labeled with the same number in Table 2.

[2] = system: rabbit skeletal myofibrils (fast skeletal myofibrils); test: Activation of fast skeletal myofibrils (PUMA assay, AC1.4); assay type: biochemical; conditions: calcium at pCa25, AC1.4 = concentration at which the compound increased the enzymatic activity
How it was run: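 Detergent-washed rabbit psoas myofibrils (~90% fast fibers), calcium set to give 25% of maximal rate (pCa25). ATPase followed by pyruvate kinase/lactate dehydrogenase-coupled NADH oxidation, absorbance at 340 nm. PM12 buffer: 12 mM PIPES, 2 mM MgCl2, 1 mM DTT, pH 6.8.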

Row | SMILES | EC50 [1] [µM] | AC1.4 [2] [µM]
1 | CC[C@H](C)[C@H]1C(=O)Nc2ccccc2CN1C(=O)CC(N)=O [Compound 1, 3-((S)-3-((S)-sec-Butyl)-2-oxo-1,2,3,5-tetrahydro-4H-benzo[e][1,4]diazepin-4-yl)-3-oxopropanamide] | 26.2 | 0.91
2 | CC[C@H](C)[C@H]1C(=O)Nc2ccccc2CN1/C(N)=N/C#N [Compound 2, (S,E)-3-((S)-sec-Butyl)-N′-cyano-2-oxo-1,2,3,5-tetrahydro-4H-benzo[e][1,4]diazepine-4-carboximidamide] | 19.1 | 0.08
3 | CC[C@H](C)[C@H]1C(=O)Nc2ccccc2CN1CC(N)=O [Compound 6, 2-((S)-3-((S)-sec-Butyl)-2-oxo-1,2,3,5-tetrahydro-4H-benzo[e][1,4]diazepin-4-yl)acetamide] | 20.3 | 0.89
4 | CC(C)[C@H]1C(=O)Nc2ccccc2CN1C(N)=O [Compound 7, (S)-3-Isopropyl-2-oxo-1,2,3,5-tetrahydro-4H-benzo[e][1,4]diazepine-4-carboxamide] | 41.1 | 1.80
5 | CC[C@H](C)[C@H]1C(=O)Nc2cc(F)cc(F)c2CN1C(N)=O [Compound 8, (S)-3-((S)-sec-butyl)-6,8-difluoro-2-oxo-1,2,3,5-tetrahydro-4H-benzo[e][1,4]diazepine-4-carboxamide] | 15.2 | 0.37
6 | CC[C@H](C)[C@H]1C(=O)Nc2ccc(F)cc2CN1C(N)=O [Compound 9, (S)-3-((S)-sec-Butyl)-7-fluoro-2-oxo-1,2,3,5-tetrahydro-4H-benzo[e][1,4]diazepine-4-carboxamide] | 19.1 | 0.28
7 | CC[C@H](C)[C@H]1C(=O)Nc2cncc(F)c2CN1C(N)=O [Compound 10, (S)-3-((S)-sec-Butyl)-6-fluoro-2-oxo-1,2,3,5-tetrahydro-4H-pyrido[3,4-e][1,4]diazepine-4-carboxamide] | 18.8 | 0.71
8 | CC[C@H](C)[C@H]1C(=O)Nc2cnccc2CN1C(N)=O [Compound 12, (S)-3-((S)-sec-butyl)-2-oxo-1,2,3,5-tetrahydro-4H-pyrido[3,4-e][1,4]diazepine-4-carboxamide] | 38.7 | 0.84
9 | CC[C@H](C)[C@H]1C(=O)Nc2ccccc2CN1C(=O)N1CC(O)C1 [Compound 32, (S)-3-((S)-sec-Butyl)-4-(3-hydroxyazetidine-1-carbonyl)-1,3,4,5-tetrahydro-2H-benzo[e][1,4]diazepin-2-one] | 12.6 | 0.13
10 | CC[C@H](C)[C@H]1C(=O)Nc2ccccc2CN1C(=O)CCO [Compound 49, (S)-3-((S)-sec-butyl)-4-(3-hydroxypropanoyl)-1,3,4,5-tetrahydro-2H-benzo[e][1,4]diazepin-2-one] | 28 | 0.55
11 | CC(C)[C@H]1C(=O)Nc2ccccc2CN1/C(N)=N/C#N [Compound 64, (S,E)-N′-Cyano-3-isopropyl-2-oxo-1,2,3,5-tetrahydro-4H-benzo[e][1,4]diazepine-4-carboximidamide] | 20.1 | 0.53
12 | CC[C@H](C)[C@H]1C(=O)Nc2cccc(F)c2CN1C(N)=O [Compound 65, (S)-3-((S)-sec-butyl)-6-fluoro-2-oxo-1,2,3,5-tetrahydro-4H-benzo[e][1,4]diazepine-4-carboxamide] | 11.3 | 0.37
13 | CC[C@H](C)[C@H]1C(=O)Nc2cnccc2CN1/C(N)=N/C#N [Compound 82, (S,E)-3-((S)-sec-butyl)-N′-cyano-2-oxo-1,2,3,5-tetrahydro-4H-pyrido[3,4-e][1,4]diazepine-4-carboximidamide] | 21.4 | 0.24
14 | CC[C@H](C)[C@H]1C(=O)Nc2ccccc2CN1C(=O)N[C@H]1CCN(C)C1 [Compound 144, (S)-3-((S)-sec-butyl)-N-((S)-1-methylpyrrolidin-3-yl)-2-oxo-1,2,3,5-tetrahydro-4H-benzo[e][1,4]diazepine-4-carboxamide] | 10.5 | 0.28
15 | CC(C)[C@H]1C(=O)Nc2cc(F)ccc2CN1C(N)=O [Compound 357, (S)-8-fluoro-3-isopropyl-2-oxo-1,2,3,5-tetrahydro-4H-benzo[e][1,4]diazepine-4-carboxamide] | 58.3 | 1.69
16 | CC[C@H](C)[C@H]1C(=O)Nc2cncc(F)c2CN1C(=O)NC [Compound 367, (S)-3-((S)-sec-butyl)-6-fluoro-N-methyl-2-oxo-1,2,3,5-tetrahydro-4H-pyrido[3,4-e][1,4]diazepine-4-carboxamide] |  | 1.05
17 | CC[C@H](C)[C@H]1C(=O)Nc2cncc(F)c2CN1C(=O)Nc1ccn(C)n1 [Compound 368, (S)-3-((S)-sec-butyl)-6-fluoro-N-(1-methyl-1H-pyrazol-3-yl)-2-oxo-1,2,3,5-tetrahydro-4H-pyrido[3,4-e][1,4]diazepine-4-carboxamide] |  | 0.41
18 | CC[C@H](C)[C@H]1C(=O)Nc2cncc(F)c2CN1C(=O)Nc1cc[nH]n1 [Compound 369] |  | 0.24
19 | CC[C@H](C)[C@H]1C(=O)Nc2cncc(F)c2CN1C(=O)N1CC(O)C1 [Compound 370, (S)-3-((S)-sec-butyl)-6-fluoro-4-(3-hydroxyazetidine-1-carbonyl)-1,3,4,5-tetrahydro-2H-pyrido[3,4-e][1,4]diazepin-2-one] |  | 0.88
20 | CC[C@H](C)[C@H]1C(=O)Nc2cncc(F)c2CN1C(=O)COCc1ccccc1 [Compound 371, (S)-4-(2-(benzyloxy)acetyl)-3-((S)-sec-butyl)-6-fluoro-1,3,4,5-tetrahydro-2H-pyrido[3,4-e][1,4]diazepin-2-one] |  | 0.50
21 | CC[C@H](C)[C@H]1C(=O)Nc2ccccc2CN1c1c(N2CCOCC2)c(=O)c1=O [Compound 372, 3-((S)-3-((S)-sec-butyl)-2-oxo-1,2,3,5-tetrahydro-4H-benzo[e][1,4]diazepin-4-yl)-4-morpholinocyclobut-3-ene-1,2-dione] |  | 0.18
22 | CC[C@H](C)[C@H]1C(=O)Nc2cnccc2CN1C(=O)c1cnn(C)c1 [Compound 373, (S)-3-((S)-sec-butyl)-4-(1-methyl-1H-pyrazole-4-carbonyl)-1,3,4,5-tetrahydro-2H-pyrido[3,4-e][1,4]diazepin-2-one] |  | 0.66
23 | CC[C@H](C)[C@H]1C(=O)Nc2cnccc2CN1c1c(NCCO)c(=O)c1=O [Compound 374, 3-((S)-3-((S)-sec-butyl)-2-oxo-1,2,3,5-tetrahydro-4H-pyrido[3,4-e][1,4]diazepin-4-yl)-4-((2-hydroxyethyl)amino)cyclobut-3-ene-1,2-dione] |  | 0.42
24 | CC[C@H](C)[C@H]1C(=O)Nc2cnccc2CN1c1c(N2CC(O)C2)c(=O)c1=O [Compound 375, 3-((S)-3-((S)-sec-butyl)-2-oxo-1,2,3,5-tetrahydro-4H-pyrido[3,4-e][1,4]diazepin-4-yl)-4-(3-hydroxyazetidin-1-yl)cyclobut-3-ene-1,2-dione] |  | 0.26
25 | CC[C@H](C)[C@H]1C(=O)Nc2cnccc2CN1c1c(NC)c(=O)c1=O [Compound 376, 3-((S)-3-((S)-sec-butyl)-2-oxo-1,2,3,5-tetrahydro-4H-pyrido[3,4-e][1,4]diazepin-4-yl)-4-(methylamino)cyclobut-3-ene-1,2-dione] |  | 0.18
26 | CC[C@H](C)[C@H]1C(=O)Nc2cnccc2CN1c1c(N(C)C)c(=O)c1=O [Compound 377, 3-((S)-3-((S)-sec-butyl)-2-oxo-1,2,3,5-tetrahydro-4H-pyrido[3,4-e][1,4]diazepin-4-yl)-4-(dimethylamino)cyclobut-3-ene-1,2-dione] |  | 0.29
27 | CC[C@H](C)[C@H]1C(=O)Nc2cnccc2CN1c1c(N)c(=O)c1=O [Compound 378, 3-amino-4-((S)-3-((S)-sec-butyl)-2-oxo-1,2,3,5-tetrahydro-4H-pyrido[3,4-e][1,4]diazepin-4-yl)cyclobut-3-ene-1,2-dione] |  | 0.15
28 | CC[C@H](C)[C@H]1C(=O)Nc2cnccc2CN1C(=O)N1CC(O)C1 [Compound 379, (S)-3-((S)-sec-butyl)-4-(3-hydroxyazetidine-1-carbonyl)-1,3,4,5-tetrahydro-2H-pyrido[3,4-e][1,4]diazepin-2-one] |  | 0.92
29 | CC[C@H](C)[C@H]1C(=O)Nc2cnccc2N1/C(=N/C#N)Oc1ccccc1 [Compound 380, phenyl (S,Z)-2-((S)-sec-butyl)-N-cyano-3-oxo-3,4-dihydropyrido[3,4-b]pyrazine-1(2H)-carbimidate] |  | 1.25
30 | CC[C@H](C)[C@H]1C(=O)Nc2cnccc2CN1c1c(NCCOC)c(=O)c1=O [Compound 381, 3-((S)-3-((S)-sec-butyl)-2-oxo-1,2,3,5-tetrahydro-4H-pyrido[3,4-e][1,4]diazepin-4-yl)-4-((2-methoxyethyl)amino)cyclobut-3-ene-1,2-dione] |  | 0.48
